# Like-named read-outs stand apart in the source and are kept apart here.
# How the values were obtained:
# [1] = format: in vitro ADME, mouse
# Procedure: As a means of measuring glucuronidation in vitro, 16 was assessed in a mouse liver hepatocyte assay.
# [2] = mouse, in vivo
# Procedure: (§1) Because of having higher metabolic stability (in mouse liver microsomes) and lower Chrom Log D, compound 16 was progressed into a VL in vivo efficacy study, carried out in our previously described VL mouse model.[7] […] Parasite load was determined in the livers of animals 3 days after cessation of treatment, and parasite burden was expressed in Leishman Donovan units (LDUs, the mean number of amastigotes per liver cell × mg weight of liver). The blood exposure of compound 16 was also determined in dosed animals on days 1 and 5 to better understand the PK/pharmacodynamics (PD) relationship of the series. According to our project criteria, a compound needs to reduce parasite burden by >70% before being considered suitable for progression to lead-optimization, while a reduction of >95% would be considered suitable for a preclinical development candidate.[12] In the study, miltefosine behaved as expected, reducing parasite levels by >99% at 30 mg/kg qd. After twice daily ip dosing at 50 mg/kg, compound 16 reduced parasite burden in mouse liver by 46%. This provided an early proof of concept for this series but fell short of our target of >70% parasite reduction.
# Leishmania donovani = assay: VL mouse in vivo efficacy model (liver parasite burden, LDU)
# Procedure: as §1, with “candidate.[12]” for “candidate.[12] In the study, miltefosine behaved as expected, reducing parasite levels by >99% at 30 mg/kg qd. After twice daily ip dosing at 50 mg/kg, compound 16 reduced parasite burden in mouse liver by 46%. This provided an early proof of concept for this series but fell short of our target of >70% parasite reduction.”
# In vivo studies were carried out as previously described.[12]
# [3] = Kinetic aqueous solubility; format: physicochemical; details: kinetic; read-out: Aq Solubility (kinetic aqueous solubility)
# Procedure: (§2) These assays were conducted as previously described.[23]
# THP-1 cells = assay: THP-1 host cell toxicity readout of the intramacrophage assay; format: cell-based, human
# Procedure: (§3) This assay was conducted as previously described,[8] except for compound exposure time, which was 96 h instead of 72 h.
# L. donovani amastigotes = assay: Intramacrophage L. donovani assay (Ld InMac); format: cell-based, Leishmania donovani
# Procedure: as §3
# Chrom Log D pH7.4 = format: physicochemical
# Procedure: This assay was conducted as previously described.[11]
# [4] = Mouse liver microsomal intrinsic clearance; format: in vitro ADME
# Procedure: as §2
smiles,measurement,setting,value
"COc1ccccc1-c1nc(-c2nc(C)n[nH]2)c(O)c2ncccc12 [Compound 16, 5-(2-Methoxyphenyl)-7-(3-methyl-1H-1,2,4-triazol-5-yl)-1,6-naphthyridin-8-ol]",glucuronide adduct observed in hepatocytes,[1],negligible amounts of the glucuronide adduct
same,clearance in mouse hepatocytes,"[1]; mouse, hepatocytes",1.4 mL/min/g
same,Tmax,[2],30 min
same,Tmax,"[2]; ip, 50 mg/kg",30 min
same,glucuronidated adducts in blood samples,"[2]; ip, 50 mg/kg",presence of glucuronidated adducts
same,time unbound blood concentration exceeds EC99,"[2]; ip, 50 mg/kg",only during the first hour post-dose
same,reduction of parasite burden in mouse liver,"Leishmania donovani; 50 mg/kg ip twice daily, 5 days",46%
same,VL mouse efficacy model Reduction in parasite levels %,Leishmania donovani; supplement sheet,46%
same,solubility kinetic,[3],>250 µM
same,THP-1 (pEC50),THP-1 cells; human THP-1 host cells,<4.3
same,THP1 pIC50,THP-1 cells; supplement sheet,<4.3
same,Ld InMac (pEC50),"L. donovani amastigotes; L. donovani amastigotes in THP-1 cells, 96 h compound exposure",6.2
same,LdInMac pIC50,L. donovani amastigotes; supplement sheet,6.2
same,ChromLogDpH7.4,Chrom Log D pH7.4; pH 7.4,3.2
same,ChromLogD,Chrom Log D pH7.4; supplement sheet,3.2
same,Cli (mouse liver microsomal intrinsic clearance),[4]; mouse liver microsomes,0.8 mL/min/g
same,"Cli (mouse, ml/min/g)",[4]; supplement sheet,0.8 mL/min/g

# Source: paper PMC7748245, “Identification and Optimization of a Series of 8-Hydroxy Naphthyridines with Potent In Vitro Antileishmanial Activity: Initial SAR and Assessment of In Vivo Activity” (Journal of Medicinal Chemistry, 2020)
